Experiment: in-vitro nail permeation assay in Franz-type diffusion cells
Type: in vitro ADME, human
Conditions: formulations with 5% and 10% (w/w) terbinafine in the vehicle of Table 3; nails with 400 orifices/cm^2, depth 0.5 mm (50% to 70% of nail plate thickness); single dose of 100 μL; 30° C.; up to 72 hours
Method: Franz-cells comprise two chambers separated by the nail plate. The radiolabelled [^14C]-terbinafine containing transungual formulations were applied in the donor upper chamber and the receptor chamber is filled with a buffer to simulate the human physiological conditions. To account for the fact the nails are hard and curved, wetted nails are clamped between two flexible flat silicone polymer disks. The temperature of the cells was kept a 30° C. using a circulating water bath. Magnetic stirrer bars were used to ensure receptor uniformity throughout an experiment.
The nail permeation assays consisted of exposing the dorsal side of the nail plates to the investigated formulations while monitoring the appearance the amount of radiolabelled [^14C]-terbinafine on the ventral side by […] in the receptor fluid chamber of the Franz cells. In all cases a single dose of 100 μL was applied in the nail dorsal side. 100 μL of buffer were taken for each time point for LSC measurement which was replaced by buffer in order to keep the total buffer volume constant. The sampling time points were 0, 1, 3, 5, 7, 24, 32, 48, 52, 55 and 72 hours.
Human cadaveric thumb toenails used in the permeation assays were harvested from diseased adults (age >50 years old) in order to match thickness and consistence of the nails of the patient age group having a higher incidence to onychomycosis. […]

SMILES: CN(C/C=C/C#CC(C)(C)C)Cc1cccc2ccccc12 [terbinafine]
- terbinafine permeation fluxes in laser pre-treated nails versus untreated nails: three to four times higher
